Results on four compounds are retold here after article PMC10945332, “Precision peptide theranostics: developing N- to C-terminus optimized theranostics targeting cholecystokinin-2 receptor” (Theranostics, 2024).

For this assay, the target named is T1, human CCK2R (Homo sapiens, UniProt P32239).
T1 construct: stably transfected to over-express the human full-length CCK2R (A431-CCK2R); expressed in transfected cells
T1 sequence (P32239 1-447): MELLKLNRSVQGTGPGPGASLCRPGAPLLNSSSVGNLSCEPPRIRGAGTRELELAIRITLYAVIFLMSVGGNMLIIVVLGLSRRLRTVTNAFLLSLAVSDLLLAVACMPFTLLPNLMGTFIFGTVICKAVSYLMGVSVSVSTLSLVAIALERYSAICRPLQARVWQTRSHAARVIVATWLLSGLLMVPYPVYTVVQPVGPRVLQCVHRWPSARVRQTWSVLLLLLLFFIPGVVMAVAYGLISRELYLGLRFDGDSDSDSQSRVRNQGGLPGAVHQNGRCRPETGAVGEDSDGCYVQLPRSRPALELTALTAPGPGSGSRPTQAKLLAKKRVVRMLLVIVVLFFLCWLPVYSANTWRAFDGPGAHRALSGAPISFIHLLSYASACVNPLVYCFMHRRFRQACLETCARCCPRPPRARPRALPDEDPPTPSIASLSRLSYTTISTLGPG
Put plainly: Competitive binding against [177Lu]Lu-DOTA-CP04 in A431-CCK2R cells. The settings on record: for IC50: N-terminal free linear peptides, vs [177Lu]Lu-DOTA-CP04 in A431-CCK2R cells, average of 2-4 biological replicates, read-out: IC50. The procedure:
Materials and Methods: Biology […]
In Vitro CCK2R-Ligand Competitive Binding Assays
All CCK2R binding experiments were conducted using A431 (human epidermoid carcinoma) […]
cells stably transfected to over-express the human full-length CCK2R (A431-CCK2R) (gifted […]
by Dr. Elisabeth von Guggenberg, Medizinische Universität Innsbruck).[41] As a negative […]
control, A431 cells stably transfected with an empty vector were analysed simultaneously […]
(A431-EV). All A431 cells were maintained in DMEM (Gibco, Australia) media supplemented […]
with 10% foetal calf serum and 250 µg/mL G418 as described previously.[32]
The affinity of all peptides for the CCK2R was evaluated using competitive binding assays […]
Briefly, 48 hours before the experiment […]
cells were plated at a density of 300,000 cells per well in 12 well plates. On the day of the […]
experiment, linear peptides were diluted in DMEM supplemented with 1% foetal calf serum to […]
DOTA-CP04 was added to each dilution. Cells were washed twice in ice-cold binding buffer […]
(DMEM supplemented with 1% foetal calf serum) and resuspended in 1 mL of the pre-prepared […]
peptide mix before being incubated at room temperature for 1 hour. Post-incubation the media […]
was removed and kept for analysis (unbound fraction) and the cells were washed twice in ice- […]
cold PBS which was pooled with the unbound fraction. Finally, 1 M NaOH (150µL) was added […]
to the wells and allowed to incubate for 5 min before lysates were collected (bound fraction).
A small volume of lysate was kept aside to determine protein concentration using the Pierce® BCA protein assay kit (Thermo Fisher, Australia). All samples were analysed using the Perkin […]
normalised according to protein concentration. Half maximal inhibitory concentration (IC50) was determined using nonlinear regression calculated using Gr aphPad Prism Software (GraphPad Software, California, USA). […]

Where a SMILES comes first, the peptide text is derived from it. [ ]: non-standard residue; d: D form. 1Nal = N[C@@H](Cc1cccc2ccccc12)C(=O)O; NMeNle = CCCC[C@H](NC)C(=O)O; Sar = CNCC(=O)O

As a reminder, the IC50 is the concentration that gives 50% inhibition. In the case of `CCCC[C@@H](C(=O)N[C@@H](CC(=O)O)C(=O)N[C@@H](Cc1cccc2ccccc12)C(N)=O)N(C)C(=O)[C@H](Cc1c[nH]c2ccccc12)NC(=O)CN(C)C(=O)[C@H](Cc1ccc(O)cc1)NC(=O)[C@H](C)NC(=O)[C@@H](C)NC(=O)[C@@H](CCC(=O)O)NC(=O)[C@@H](CCC(=O)O)NC(=O)[C@@H](CCC(=O)O)NC(=O)[C@@H](CCC(=O)O)NC(=O)[C@H](N)CCC(=O)O` [GA10] (H-[dE][dE][dE][dE][dE][dA]AY[Sar]W[NMeNle]D[1Nal]-NH2), the IC50 worked out at 1.62 nM.
Take `CCCC[C@@H](C(=O)N[C@@H](CC(=O)O)C(=O)N[C@@H](Cc1cccc2ccccc12)C(N)=O)N(C)C(=O)[C@H](Cc1c[nH]c2ccccc12)NC(=O)CN(C)C(=O)[C@H](Cc1ccc(O)cc1)NC(=O)[C@H](C)NC(=O)[C@@H](CCC(=O)O)NC(=O)[C@@H](CCC(=O)O)NC(=O)[C@@H](C)NC(=O)[C@@H](CCC(=O)O)NC(=O)[C@@H](CCC(=O)O)NC(=O)[C@H](N)CCC(=O)O` [GA8] (H-[dE][dE][dE][dA][dE][dE]AY[Sar]W[NMeNle]D[1Nal]-NH2): the half-maximal inhibitory concentration (IC50) was 1.62 nM.
For the compound `CCCC[C@@H](C(=O)N[C@@H](CC(=O)O)C(=O)N[C@@H](Cc1cccc2ccccc12)C(N)=O)N(C)C(=O)[C@H](Cc1c[nH]c2ccccc12)NC(=O)CN(C)C(=O)[C@H](Cc1ccc(O)cc1)NC(=O)[C@H](C)NC(=O)[C@@H](CCC(=O)O)NC(=O)[C@@H](CCC(=O)O)NC(=O)[C@@H](CCC(=O)O)NC(=O)[C@@H](C)NC(=O)[C@@H](CCC(=O)O)NC(=O)[C@H](N)CCC(=O)O` [GA7] (H-[dE][dE][dA][dE][dE][dE]AY[Sar]W[NMeNle]D[1Nal]-NH2), the IC50 turned out to be 0.184 nM. Further, under “linear peptides”, the “fold improvement of activity over CP04” value is “greater than 10 fold” and the “fold improvement of affinity over GA1” value is reported as around 2 fold.
In the case of `CCCC[C@@H](C(=O)N[C@@H](CC(=O)O)C(=O)N[C@@H](Cc1cccc2ccccc12)C(N)=O)N(C)C(=O)[C@H](Cc1c[nH]c2ccccc12)NC(=O)CN(C)C(=O)[C@H](Cc1ccc(O)cc1)NC(=O)[C@H](C)NC(=O)[C@@H](CCC(=O)O)NC(=O)[C@@H](CCC(=O)O)NC(=O)[C@@H](CCC(=O)O)NC(=O)[C@@H](CCC(=O)O)NC(=O)[C@@H](C)NC(=O)[C@H](N)CCC(=O)O` [GA6] (H-[dE][dA][dE][dE][dE][dE]AY[Sar]W[NMeNle]D[1Nal]-NH2), the IC50 was determined as 1.23 nM.
